In brackets after ≈: the same amount, converted by molar mass.
Key:
E. cloacae 2709 = test: MIC against E. cloacae 2709; type: cell-based; details: Table 3, E. cloacae 2709, KPC-3, VIM-1
Method: (§1) As shown, the foregoing composition was tested for minimum inhibitory concentration (MIC, μg/mL) against bacteria listed in Tables 2-3.

K. pneumoniae 4104 = test: MIC against K. pneumoniae 4104; type: cell-based; details: K. pneumoniae 4104, KPC-3, TEM-1
Method: as §1

E. coli 2666 = test: MIC against E. coli 2666; type: cell-based; details: Table 3, E. coli 2666, KPC-2
Method: as §1

E. coli 102 = test: MIC against E. coli 102; type: cell-based; details: Table 2, E. coli 102, TEM-1
Excerpt: (§2) Without limitation, the present cephem compounds alone, or in combination with one or more β-lactamase inhibitors, may provide improved antibacterial efficacy, particularly in antibiotic-resistant bacterial strains. It is believed that the present compounds may be structurally different from known compounds and, as a result, may be more basic in nature. It is an advantage that the present compounds may extend the spectrum of effective bacterial compounds, particularly against previously-resistant bacteria (e.g. ESKAPE organisms), and/or gram negative bacteria, without significant side effects. In a preferred embodiment, the present cephem compound may comprise reference compound ceftazidime, which may be used alone, or in combination with one or more β-lactamase inhibitors, such as NXL-104. As shown, the foregoing composition was tested for minimum inhibitory concentration (MIC, μg/mL) against bacteria listed in Tables 2-3.

E. cloacae 551 = test: MIC against E. cloacae 551; type: cell-based; details: Table 2, E. cloacae 551, Caz R, IMP S
Excerpt: as §2

S. pneumoniae ATCC 6301 = test: MIC against S. pneumoniae ATCC 6301; type: cell-based; details: Table 2, S. pneumoniae ATCC 6301, Pen S
Excerpt: as §2

K. pneumoniae 2713 = test: MIC against K. pneumoniae 2713; type: cell-based; details: Table 3, K. pneumoniae 2713, KPC-3, VIM-1
Method: as §1

S. pneumoniae 2492 = test: MIC against S. pneumoniae 2492; type: cell-based; details: Table 2, S. pneumoniae 2492, Pen R
Excerpt: as §2

M. morganii 2409 = test: MIC against M. morganii 2409; type: cell-based; details: Table 2, M. morganii 2409, High level cephase, β-Lactamase producing
Excerpt: as §2

S. aureus 3144 = test: MIC against S. aureus 3144; type: cell-based; details: Table 2, S. aureus 3144, MSSA
Excerpt: as §2

S. pneumoniae 2392 = test: MIC against S. pneumoniae 2392; type: cell-based; details: Table 2, S. pneumoniae 2392, Pen R
Excerpt: as §2

E. coli 2671 = test: MIC against E. coli 2671; type: cell-based; details: Table 2, E. coli 2671, VIM-19
Excerpt: as §2

K. pneumoniae 4088 = test: MIC against K. pneumoniae 4088; type: cell-based; details: Table 3, K. pneumoniae 4088, KPC-3
Method: as §1

K. pneumoniae 4109 = test: MIC against K. pneumoniae 4109; type: cell-based; details: Table 2, K. pneumoniae 4109, SHV-1, SHV-12
Excerpt: as §2

S. pneumoniae 2493 = test: MIC against S. pneumoniae 2493; type: cell-based; details: Table 2, S. pneumoniae 2493, Pen R
Excerpt: as §2

K. pneumoniae 4108 = test: MIC against K. pneumoniae 4108; type: cell-based; details: K. pneumoniae 4108, KPC-3, TEM-166, SHV-12, SHV-141
Method: as §1

E. coli 4101 = test: MIC against E. coli 4101; type: cell-based; details: Table 2, E. coli 4101, CTX-M-14, TEM-1
Excerpt: as §2

E. coli 4098 = test: MIC against E. coli 4098; type: cell-based; details: Table 2, E. coli 4098, CTX-M-15, TEM-1
Excerpt: as §2

E. cloacae 2706 = test: MIC against E. cloacae 2706; type: cell-based; details: Table 3, E. cloacae 2706, VIM-1, KPC-3
Method: as §1

E. cloacae596 = test: MIC against E. cloacae596; type: cell-based, E. cloacae; details: Table 2, E. cloacae596, Caz R, IMP S
Excerpt: as §2

K. baumanii 4094 = test: MIC against K. baumanii 4094; type: cell-based; details: Table 2, K. baumanii 4094, OXA-51
Excerpt: as §2

K. pneumoniae 4105 = test: MIC against K. pneumoniae 4105; type: cell-based; details: K. pneumoniae 4105, KPC-3, TEM-1, SHV-11
Method: as §1

K. baumanii 4095 = test: MIC against K. baumanii 4095; type: cell-based; details: Table 2, K. baumanii 4095, OXA-48
Excerpt: as §2

[1] = Table 2, in combination with NXL-104
[2] = Table 3, in combination with NXL-104

Q: Which MIC (E. cloacae 2709; alone) does the source give for CC(C)(O/N=C(\C(=O)N[C@@H]1C(=O)N2C(C(=O)[O-])=C(C[n+]3ccccc3)CS[C@H]12)c1csc(N)n1)C(=O)O [CAZ, ceftazidime, reference compound] here?
A: >32 µg/mL

Q: What about the MIC (E. cloacae 2709; in combination with NXL-104) of the same compound?
A: 8 µg/mL

Q: And the MIC (K. pneumoniae 4104; Table 2, alone)?
A: 32.00 µg/mL (≈ 58.5 µM)

Q: What about the MIC (K. pneumoniae 4104; [1]) of the same compound?
A: 8.00 µg/mL

Q: What about the MIC (K. pneumoniae 4104; Table 3, alone) of the same compound?
A: >32 µg/mL

Q: What about the MIC (K. pneumoniae 4104; [2]) of the same compound?
A: 2 µg/mL

Q: What about the MIC (E. coli 2666; alone) of the same compound?
A: >32 µg/mL

Q: And the MIC (E. coli 2666; in combination with NXL-104)?
A: 4 µg/mL

Q: And the MIC (E. coli 102; alone)?
A: 0.12 µg/mL

Q: What about the MIC (E. coli 102; in combination with NXL-104) of the same compound?
A: 0.12 µg/mL

Q: What about the MIC (E. cloacae 551; alone) of the same compound?
A: 16.00 µg/mL

Q: And the MIC (E. cloacae 551; in combination with NXL-104)?
A: 4.00 µg/mL

Q: And the MIC (S. pneumoniae ATCC 6301; alone)?
A: 0.12 µg/mL

Q: What about the MIC (S. pneumoniae ATCC 6301; in combination with NXL-104) of the same compound?
A: 0.12 µg/mL

Q: And the MIC (K. pneumoniae 2713; alone)?
A: >32 µg/mL

Q: And the MIC (K. pneumoniae 2713; in combination with NXL-104)?
A: 8 µg/mL

Q: And the MIC (S. pneumoniae 2492; alone)?
A: 8.00 µg/mL

Q: And the MIC (S. pneumoniae 2492; in combination with NXL-104)?
A: 8.00 µg/mL

Q: What about the MIC (M. morganii 2409; alone) of the same compound?
A: 16.00 µg/mL

Q: What about the MIC (M. morganii 2409; in combination with NXL-104) of the same compound?
A: 4.00 µg/mL

Q: What about the MIC (S. aureus 3144; alone) of the same compound?
A: 16.00 µg/mL

Q: And the MIC (S. aureus 3144; in combination with NXL-104)?
A: 16.00 µg/mL

Q: And the MIC (S. pneumoniae 2392; alone)?
A: 16.00 µg/mL

Q: What about the MIC (S. pneumoniae 2392; in combination with NXL-104) of the same compound?
A: 16.00 µg/mL

Q: What about the MIC (E. coli 2671; alone) of the same compound?
A: 32.00 µg/mL

Q: And the MIC (E. coli 2671; in combination with NXL-104)?
A: 32.00 µg/mL

Q: What about the MIC (K. pneumoniae 4088; alone) of the same compound?
A: >32 µg/mL

Q: What about the MIC (K. pneumoniae 4088; in combination with NXL-104) of the same compound?
A: 8 µg/mL

Q: What about the MIC (K. pneumoniae 4109; alone) of the same compound?
A: 2.00 µg/mL

Q: And the MIC (K. pneumoniae 4109; in combination with NXL-104)?
A: 0.50 µg/mL

Q: What about the MIC (S. pneumoniae 2493; alone) of the same compound?
A: 16.00 µg/mL

Q: What about the MIC (S. pneumoniae 2493; in combination with NXL-104) of the same compound?
A: 16.00 µg/mL

Q: What about the MIC (K. pneumoniae 4108; Table 2, alone) of the same compound?
A: 16.00 µg/mL (≈ 29.3 µM)

Q: And the MIC (K. pneumoniae 4108; [1])?
A: 4.00 µg/mL

Q: What about the MIC (K. pneumoniae 4108; Table 3, alone) of the same compound?
A: >32 µg/mL

Q: What about the MIC (K. pneumoniae 4108; [2]) of the same compound?
A: 4 µg/mL

Q: And the MIC (E. coli 4101; alone)?
A: 0.50 µg/mL

Q: What about the MIC (E. coli 4101; in combination with NXL-104) of the same compound?
A: 0.25 µg/mL

Q: And the MIC (E. coli 4098; alone)?
A: 2.00 µg/mL

Q: What about the MIC (E. coli 4098; in combination with NXL-104) of the same compound?
A: 0.50 µg/mL

Q: What about the MIC (E. cloacae 2706; alone) of the same compound?
A: >32 µg/mL

Q: And the MIC (E. cloacae 2706; in combination with NXL-104)?
A: 32 µg/mL

Q: What about the MIC (E. cloacae596; alone) of the same compound?
A: 4.00 µg/mL

Q: What about the MIC (E. cloacae596; in combination with NXL-104) of the same compound?
A: 1.00 µg/mL

Q: What about the MIC (K. baumanii 4094; alone) of the same compound?
A: >32 µg/mL

Q: And the MIC (K. baumanii 4094; in combination with NXL-104)?
A: 32.00 µg/mL

Q: And the MIC (K. pneumoniae 4105; Table 2, alone)?
A: 32.00 µg/mL (≈ 58.5 µM)

Q: And the MIC (K. pneumoniae 4105; [1])?
A: 4.00 µg/mL

Q: What about the MIC (K. pneumoniae 4105; Table 3, alone) of the same compound?
A: >32 µg/mL

Q: What about the MIC (K. pneumoniae 4105; [2]) of the same compound?
A: 4 µg/mL

Q: What about the MIC (K. baumanii 4095; alone) of the same compound?
A: 0.50 µg/mL

Q: What about the MIC (K. baumanii 4095; in combination with NXL-104) of the same compound?
A: 0.50 µg/mL

From patent USRE48097E1, “Cephem compounds, their production and use” (priority 2015, dated 2020)
